The NIST ThermoML archive (doi:10.1016/j.jct.2012.03.031)

Assay: molar heat capacity at constant pressure
Conditions: 101.33 kPa

CCCCc1ccc(C(=O)Oc2ccc(C#N)c(F)c2)cc1 [4-cyano-3-fluorophenyl 4-butylbenzoate]
Conditions	molar heat capacity at constant pressure [J/K/mol]
221.07 K, Crystal 2, Small (less than 1 g) adiabatic calorimetry	311.55
221.65 K, Crystal 1, Small (less than 1 g) adiabatic calorimetry	297.64
222.84 K, Crystal 1, Small (less than 1 g) adiabatic calorimetry	299.23
223.8 K, Crystal 2, Small (less than 1 g) adiabatic calorimetry	314.36
223.83 K, Crystal 1, Small (less than 1 g) adiabatic calorimetry	300.59
224.03 K, Crystal 1, Small (less than 1 g) adiabatic calorimetry	300.76
225.22 K, Crystal 1, Small (less than 1 g) adiabatic calorimetry	302.28
226.41 K, Crystal 1, Small (less than 1 g) adiabatic calorimetry	303.96
226.54 K, Crystal 2, Small (less than 1 g) adiabatic calorimetry	317.16
226.65 K, Crystal 1, Small (less than 1 g) adiabatic calorimetry	304.49
227.59 K, Crystal 1, Small (less than 1 g) adiabatic calorimetry	305.68
228.77 K, Crystal 1, Small (less than 1 g) adiabatic calorimetry	307.52
229.29 K, Crystal 2, Small (less than 1 g) adiabatic calorimetry	320.04
229.47 K, Crystal 1, Small (less than 1 g) adiabatic calorimetry	308.62
229.94 K, Crystal 1, Small (less than 1 g) adiabatic calorimetry	309.12
230 K, Crystal 1, Vacuum adiabatic calorimetry	309.39
230 K, Crystal 2, Vacuum adiabatic calorimetry	320.68
231.12 K, Crystal 1, Small (less than 1 g) adiabatic calorimetry	310.59
232.06 K, Crystal 2, Small (less than 1 g) adiabatic calorimetry	322.55
232.28 K, Crystal 1, Small (less than 1 g) adiabatic calorimetry	312.29
232.3 K, Crystal 1, Small (less than 1 g) adiabatic calorimetry	312.7
233.45 K, Crystal 1, Small (less than 1 g) adiabatic calorimetry	313.85
234.61 K, Crystal 1, Small (less than 1 g) adiabatic calorimetry	315.48
234.84 K, Crystal 2, Small (less than 1 g) adiabatic calorimetry	325.57
235.14 K, Crystal 1, Small (less than 1 g) adiabatic calorimetry	316.89
235.77 K, Crystal 1, Small (less than 1 g) adiabatic calorimetry	317.02
236.93 K, Crystal 1, Small (less than 1 g) adiabatic calorimetry	318.75
237.63 K, Crystal 2, Small (less than 1 g) adiabatic calorimetry	328.79
238.05 K, Crystal 1, Small (less than 1 g) adiabatic calorimetry	321.4
238.08 K, Crystal 1, Small (less than 1 g) adiabatic calorimetry	320.42
239.23 K, Crystal 1, Small (less than 1 g) adiabatic calorimetry	322.04
240 K, Crystal 1, Vacuum adiabatic calorimetry	324.53
240 K, Crystal 2, Vacuum adiabatic calorimetry	332.29
240.38 K, Crystal 1, Small (less than 1 g) adiabatic calorimetry	323.67
240.43 K, Crystal 2, Small (less than 1 g) adiabatic calorimetry	332.92
241.04 K, Crystal 1, Small (less than 1 g) adiabatic calorimetry	326.21
241.52 K, Crystal 1, Small (less than 1 g) adiabatic calorimetry	325.48
242.66 K, Crystal 1, Small (less than 1 g) adiabatic calorimetry	327.48
243.24 K, Crystal 2, Small (less than 1 g) adiabatic calorimetry	336.05
243.8 K, Crystal 1, Small (less than 1 g) adiabatic calorimetry	328.63
244.07 K, Crystal 1, Small (less than 1 g) adiabatic calorimetry	330.21
246.07 K, Crystal 1, Small (less than 1 g) adiabatic calorimetry	331.47
247.13 K, Crystal 1, Small (less than 1 g) adiabatic calorimetry	334.86
247.2 K, Crystal 1, Small (less than 1 g) adiabatic calorimetry	333.06
248.33 K, Crystal 1, Small (less than 1 g) adiabatic calorimetry	334.82
249.45 K, Crystal 1, Small (less than 1 g) adiabatic calorimetry	336.63
250 K, Crystal 1, Vacuum adiabatic calorimetry	339.52
250.22 K, Crystal 1, Small (less than 1 g) adiabatic calorimetry	339.88
250.57 K, Crystal 1, Small (less than 1 g) adiabatic calorimetry	338.23
251.69 K, Crystal 1, Small (less than 1 g) adiabatic calorimetry	339.75
252.81 K, Crystal 1, Small (less than 1 g) adiabatic calorimetry	341.78
253.35 K, Crystal 1, Small (less than 1 g) adiabatic calorimetry	344.81
253.92 K, Crystal 1, Small (less than 1 g) adiabatic calorimetry	343.44
255.03 K, Crystal 1, Small (less than 1 g) adiabatic calorimetry	345.42
256.14 K, Crystal 1, Small (less than 1 g) adiabatic calorimetry	347.42
256.51 K, Crystal 1, Small (less than 1 g) adiabatic calorimetry	349.77
257.24 K, Crystal 1, Small (less than 1 g) adiabatic calorimetry	349.12
258.34 K, Crystal 1, Small (less than 1 g) adiabatic calorimetry	350.75
259.44 K, Crystal 1, Small (less than 1 g) adiabatic calorimetry	352.9
259.7 K, Crystal 1, Small (less than 1 g) adiabatic calorimetry	354.86
260 K, Crystal 1, Vacuum adiabatic calorimetry	355.31
260.54 K, Crystal 1, Small (less than 1 g) adiabatic calorimetry	354.79
261.63 K, Crystal 1, Small (less than 1 g) adiabatic calorimetry	356.59
262.72 K, Crystal 1, Small (less than 1 g) adiabatic calorimetry	358.59
262.92 K, Crystal 1, Small (less than 1 g) adiabatic calorimetry	359.67
263.8 K, Crystal 1, Small (less than 1 g) adiabatic calorimetry	360.46
264.89 K, Crystal 1, Small (less than 1 g) adiabatic calorimetry	362.63
265.96 K, Crystal 1, Small (less than 1 g) adiabatic calorimetry	364.99
266.18 K, Crystal 1, Small (less than 1 g) adiabatic calorimetry	364.4
267.04 K, Crystal 1, Small (less than 1 g) adiabatic calorimetry	367.18
268.11 K, Crystal 1, Small (less than 1 g) adiabatic calorimetry	369.24
269.18 K, Crystal 1, Small (less than 1 g) adiabatic calorimetry	371.72
269.46 K, Crystal 1, Small (less than 1 g) adiabatic calorimetry	369.89
270 K, Crystal 1, Vacuum adiabatic calorimetry	371.52
270.25 K, Crystal 1, Small (less than 1 g) adiabatic calorimetry	373.77
271.31 K, Crystal 1, Small (less than 1 g) adiabatic calorimetry	375.16
272.37 K, Crystal 1, Small (less than 1 g) adiabatic calorimetry	378.43
272.76 K, Crystal 1, Small (less than 1 g) adiabatic calorimetry	379.8
273.42 K, Crystal 1, Small (less than 1 g) adiabatic calorimetry	380.54
274.47 K, Crystal 1, Small (less than 1 g) adiabatic calorimetry	383.84
275.53 K, Crystal 1, Small (less than 1 g) adiabatic calorimetry	385.34
276.08 K, Crystal 1, Small (less than 1 g) adiabatic calorimetry	388.45
276.58 K, Crystal 1, Small (less than 1 g) adiabatic calorimetry	389.76
277.62 K, Crystal 1, Small (less than 1 g) adiabatic calorimetry	392.5
278.67 K, Crystal 1, Small (less than 1 g) adiabatic calorimetry	396.43
279.42 K, Crystal 1, Small (less than 1 g) adiabatic calorimetry	397.42
279.7 K, Crystal 1, Small (less than 1 g) adiabatic calorimetry	398.5
280 K, Crystal 1, Vacuum adiabatic calorimetry	397.19
281.47 K, Crystal 1, Small (less than 1 g) adiabatic calorimetry	402.8
282.22 K, Crystal 1, Small (less than 1 g) adiabatic calorimetry	405.47
282.99 K, Crystal 1, Small (less than 1 g) adiabatic calorimetry	408.97
283.75 K, Crystal 1, Small (less than 1 g) adiabatic calorimetry	414.38
284.5 K, Crystal 1, Small (less than 1 g) adiabatic calorimetry	422.32
285.25 K, Crystal 1, Small (less than 1 g) adiabatic calorimetry	436.88
285.98 K, Crystal 1, Small (less than 1 g) adiabatic calorimetry	474.25

Liquid
Conditions	molar heat capacity at constant pressure [J/K/mol]
289.24 K, Small (less than 1 g) adiabatic calorimetry	479.05
289.97 K, Small (less than 1 g) adiabatic calorimetry	476.93
290 K, Vacuum adiabatic calorimetry	473.62
290.7 K, Small (less than 1 g) adiabatic calorimetry	476.25
291.67 K, Small (less than 1 g) adiabatic calorimetry	476.45
291.8 K, Small (less than 1 g) adiabatic calorimetry	475.34
293.12 K, Small (less than 1 g) adiabatic calorimetry	477.07
294.48 K, Small (less than 1 g) adiabatic calorimetry	476.74
295.04 K, Small (less than 1 g) adiabatic calorimetry	477.7
297.17 K, Small (less than 1 g) adiabatic calorimetry	477.75
297.43 K, Small (less than 1 g) adiabatic calorimetry	478.84
298.15 K, Vacuum adiabatic calorimetry	478.16
299.87 K, Small (less than 1 g) adiabatic calorimetry	478.89
300 K, Vacuum adiabatic calorimetry	478.96
302.6 K, Small (less than 1 g) adiabatic calorimetry	480.42
305.34 K, Small (less than 1 g) adiabatic calorimetry	481.47
308.1 K, Small (less than 1 g) adiabatic calorimetry	482.84
310 K, Vacuum adiabatic calorimetry	483.98
310.87 K, Small (less than 1 g) adiabatic calorimetry	484.5
313.66 K, Small (less than 1 g) adiabatic calorimetry	486.08
316.47 K, Small (less than 1 g) adiabatic calorimetry	487.53
319.29 K, Small (less than 1 g) adiabatic calorimetry	489.61
320 K, Vacuum adiabatic calorimetry	490.09
322.13 K, Small (less than 1 g) adiabatic calorimetry	491.52
324.98 K, Small (less than 1 g) adiabatic calorimetry	493.16
327.85 K, Small (less than 1 g) adiabatic calorimetry	495.06
330 K, Vacuum adiabatic calorimetry	496.49
330.74 K, Small (less than 1 g) adiabatic calorimetry	496.98
333.64 K, Small (less than 1 g) adiabatic calorimetry	498.96
336.55 K, Small (less than 1 g) adiabatic calorimetry	500.86
339.48 K, Small (less than 1 g) adiabatic calorimetry	502.59
340 K, Vacuum adiabatic calorimetry	502.96
342.43 K, Small (less than 1 g) adiabatic calorimetry	504.71
345.39 K, Small (less than 1 g) adiabatic calorimetry	506.48
348.36 K, Small (less than 1 g) adiabatic calorimetry	508.66
350 K, Vacuum adiabatic calorimetry	509.84
351.35 K, Small (less than 1 g) adiabatic calorimetry	510.81
354.35 K, Small (less than 1 g) adiabatic calorimetry	513
357.37 K, Small (less than 1 g) adiabatic calorimetry	514.97
360.4 K, Small (less than 1 g) adiabatic calorimetry	517.24
